Values after ≈ are worked out from the molar mass of the structure shown. Non-standard residues stand in square brackets, D forms with d. No end group written: not given here.
Columns and labels:
Candida = experiment: Ex vivo human nail fragment model, treatment of Candida infection; format: cell-based
Text: Trichophyton rubrum strain NCPF0118 was obtained from the National Collection of Pathogenic Fungi, Bristol, UK. Clinical isolates of T. rubrum DM2006 1661, T. rubrum DM2006 1358, T. mentagrophytes DM2006 1503, T. mentagrophytes DM2006 1498 were isolated from patients suffering a range of tinea infections and were purchased from Professor Michel Monod (Service de Dermatologie, Université de Lausanne, Switzerland). Clinical isolates of Candida samples were also obtained from patients suffering from Candidal infection.
The procedure was carried out as described for Example 1 above with modifications to the vehicle, and fungal strains used. Each nail was inoculated with 10 μl of a spore suspension of Candida. Following inoculation the nails were treated with 10% (w/v) Novexatin® (NP213) in a vehicle solution of 50% (w/v) PEG 8000 plus 20% (w/v) urea; 10% (w/v) NP339 in a vehicle solution of 50% (w/v) PEG 8000 plus 20% (w/v) urea; 10% (w/v) NP339 in a vehicle solution of water; a control solution of 50% (w/v) PEG 8000 plus 20% (w/v) urea; a control solution of water; a solution of 16 μg/ml Itraconazole® and 1.6% (w/v) DMSO in a vehicle solution of water and a control solution of 1.6% (w/v) DMSO. As for Experiment 1 above, nail fragments were treated daily for up to 28 days. […]
At the end of the treatment period, the nail fragments were placed in sterile 2 ml microcentrifuge tubes containing 450 μl of a suspension broth consisting of Sabouraud's Liquid Medium, pH 5.6, containing approximately 100 mg of sterile zirconia beads (0.5 mm diameter). […] Colonies were counted on dishes that contained between 20 and 200 colonies in total, and the total number of cfu present in each sample was calculated. […] The counts were corrected for the surface area of the nails studied to give cfu/cm^2, transformed to log10 and means and standard errors of the mean were calculated using GraphPad Prism 4 (GraphPad, San Diego, Calif.). […] When very low numbers of colonies were detected, as in Experiment 3, the calculated cfu values are shown in order to indicate trends.

[1] = tested on: Trichophyton rubrum strain NCPF0118; experiment: Ex vivo human nail fragment model, treatment of established infection (cfu recovered); format: cell-based; details: Experiment 5; fluconazole at approximately 100×MIC100; 14 d and 28 d, daily
Protocol: For antifungal efficacy studies with human toe nails, a solution of 50% (w/v) PEG 8000 (Sigma-Aldrich; Cat No P2139) was prepared by autoclaving and then diluting with sterile 50% (w/v) urea solution (Sigma-Aldrich; Cat No 51457). This solution was mixed thoroughly by vortexing and allowed to stabilise at 50° C. for up to 2 h. After stabilisation, the temperature was allowed to drop to below 40° C. and a concentrated, filter-sterilised solution of Novexatin® (NP213), dissolved in deionised water was added. Final concentrations of PEG 8000 of 50% (w/v), urea of 0-20% (w/v) and Novexatin® (NP213) of 0-10% (w/v) were used in the experiments described below.
On arrival, the cultures were transferred to a Petri dish containing sterile Sabouraud Dextrose agar (Sigma-Aldrich; Cat No 84088, or equivalent) and grown for up to 7 d at 30° C. The resulting growth was scraped off and re-suspended in Sabouraud's liquid medium (Oxoid; Cat No CM 147, or equivalent) containing […] dimethyl sulfoxide (DMSO) as cryoprotectant to create a culture stock. The fungus was stored in 0.5 ml aliquots in 2 ml screw-capped polypropylene vials (Cryovials) at −80° C. Seven days prior to experimental use, 50 μl of the culture stock was used to inoculate a slope of Potato Dextrose agar (Merck; Cat No VM556130 609, or equivalent), which was incubated at 30° C. for up to 7 d. The surface of the resulting growth was gently perturbed in 3 ml of sterile distilled/deionised water. After filtration through 2 layers of sterile surgical gauze to remove debris and larger clumps of biomass, the absorbance of the resultant spore suspension was measured at 530 nm, then adjusted to the 0.5 MacFarland standard (OD approx. 0.15)^2.
Human toe nails were obtained from a podiatrist in Aberdeen following a successful application to the Grampian Local Research Ethics Committee. […] Large toe nails were cut into 4 pieces, each approximately 1 cm^2 in area, using nail clippers. Nails of normal thickness (≦2 mm) were chosen. The 4 fragments cut from each single nail were placed in quadrants marked on Petri-dishes containing phosphate buffered saline rendered solid with 1.2% (w/v) Technical Agar No. 3 (Oxoid; Cat No LP0013, or equivalent), subsequently referred to as PBS agar. The nail fragments were of irregular shape, so to ensure that each nail received the appropriate amount of the treatment solutions, the surface area was measured by photographing the nails over graph paper and determining the number of 1mm^2 squares covered by each nail. The thickness of the nails was measured with a micrometer and nails distributed among treatment groups, to avoid nail thickness providing an additional experimental variable.
Twenty four nail fragments from 6 whole large toenails were each inoculated with 10 μl of a spore suspension of T. rubrum NCPF0118 which was prepared as described above. The inoculum was applied to the ventral side of the nail (i.e. the side next to the skin in situ). The nails were incubated for 7 d at 30° C. to allow the fungus to infect the nail tissue. After this pre-incubation period, 12 of the fragments were assigned to each of 2 different treatment protocols, involving daily treatment with 2 different vehicle solutions, each containing a control and 3 different concentrations of Novexatin® (NP213). These vehicle solutions were: 50% (w/v) PEG 8000, and 50% (w/v) PEG 8000 plus 20% (w/v) urea. The concentrations of Novexatin® (NP213) studied were 0%, 1%, 5% and 10% (w/v). The solutions were applied at a volume of 10 μl/cm^2, corrected for the surface area of the different nail fragments as described above. The applied solution was spread over the dorsal side of the nail, to mimic the intended clinical treatment and the ventral side of the nail rested on the agar surface. Each time the nails were treated, they were transferred to a new sterile Petri dish containing PBS agar to minimise any build-up of fungal growth on the agar. Nail fragments were treated daily for 28 days. […]

T. rubrum NCPF0118 = experiment: In vitro MIC100 testing; format: cell-based, Trichophyton rubrum; details: Trichophyton rubrum; versus T. rubrum NCPF0118 in vitro; read-out: concentration equal to 100× the MIC100

CN(C/C=C/C#CC(C)(C)C)Cc1cccc2ccccc12 [Terbinafine®, [(2E)-6,6-dimethylhept-2-en-4-yn-1-yl](methyl)(naphthalen-1-ylmethyl)amine, reference compound]
outcome of treatment (Candida; Experiment 7, 10 μg/ml, 14 d and 28 d): unsuccessful

OC(Cn1cncn1)(Cn1cncn1)c1ccc(F)cc1F [fluconazole, 2-(2,4-difluorophenyl)-1,3-bis(1H-1,2,4-triazol-1-yl)propan-2-ol, reference compound]
outcome of treatment [1]: unsuccessful | MIC (T. rubrum NCPF0118): 360 µg/mL (≈ 1180 µM)

dRdRdRdRdRdRdRdRdRdRdRdRdR ([dR][dR][dR][dR][dR][dR][dR][dR][dR][dR][dR][dR][dR]) [NP339]
recoverable fungal growth after treatment (Candida; Experiments 6 and 7, 10% (w/v), 14 d or 28 d, daily): no recoverable fungal growth

From US20130109049A1, “Method of Establishing a Fungal Nail Infection” (NOVABIOTICS LIMITED, priority 2009, published 2013)
